Tests used:
[1] = target: T1, mitochondrial pyruvate carrier (MPC) (Homo sapiens, UniProt O95563+Q9Y5U8); test: Seahorse Xfe24 pyruvate-dependent OCR in HeLa cells; format: cell-based; conditions: pyruvate-dependent OCR in presence of fCCP
T1 sequence (Q9Y5U8 1-109): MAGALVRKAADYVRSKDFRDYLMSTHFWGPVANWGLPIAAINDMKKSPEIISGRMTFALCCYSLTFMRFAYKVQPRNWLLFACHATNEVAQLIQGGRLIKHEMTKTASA
T1 sequence (O95563 1-127): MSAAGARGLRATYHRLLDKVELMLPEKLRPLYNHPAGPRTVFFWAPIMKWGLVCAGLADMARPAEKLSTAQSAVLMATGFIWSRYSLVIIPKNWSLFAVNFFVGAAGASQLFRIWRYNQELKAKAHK
Protocol: The inhibition of mitochondrial pyruvate carrier (MPC) by compounds of the invention have been tested as follows and their inhibitory activity was expressed as IC50s values.
Cells are plated in the customized Seahorse plates. For HeLa cells, seeding is at 4×10^4 cells/well in […] DMEM, 10% FBS, 1% pen/strep/glutamine. 3 wells are left blank (medium alone) for internal calibration. The assay cartridge is hydrated overnight at 37° C. in 1 ml/well XF Calibrant Solution.
Since 50 μl of compound of the invention will be injected into 450 μl washed cells, compounds are made up in assay medium at 10× the final desired concentration
For dose response analyses, compounds are tested at final concentrations 30, 5, 0.83, 0.14, 0.023 μM (1:6 serial dilutions from […])
Positive control: […] (the parent hit compound which gave rise to the actual series)
Negative control: Assay medium alone.
The seahorse reagent plate is prepared as follows and transfered to the Xfe24 analyser for the calibration step:
The medium is almost completely removed from the well without allowing cells to dry Cells are washed twice with 300 μl Assay Medium. 450 μl fresh Assay Medium is added to each well. The plate is transferred to the Xfe24 analyser for measurement of pyruvate-dependent OCR. All values are normalized to the initial basal respiration rate in each well which is measured prior to addition of compounds and designated as 100%. IC50 determination is based on the average of the 3 measurements made in the presence of fCCP, taking 30 μM parent hit compound as maximal inhibition and PBS/Ca/Mg as zero inhibition.

[2] = tested on: B16F10 tumors modified to express HER2; test: Adoptive cell transfer of HER2-CAR T cells produced with compound, B16 melanoma expressing HER2; format: in vivo, mouse
Protocol: For each retroviral preparation, 8×10^6 Phoenix ECO cells (ATCC, CRL-3214) were plated in a T150 tissue culture flask in RPMI medium supplemented with 10% FCS, 10 mM HEPES and 50 U/ml Penicillin-Streptomycin. On the next day, cells were transfected with 21 μg of the retroviral construct with Turbofect transfection reagent (Thermo Fischer Scientific), according to the manufacturer protocol. The medium was changed daily and collected at 48 h and 72 h post transfection. 48 h and 72 h virus supernatants were pooled and sedimented at 22′000 rcf for 2 h at 4° C. Finally, retrovirus pellets were resuspended in 2 ml of full RPMI medium and divided in 8 aliquots of 250 μl each, which were snap-frozen on dry ice and stored at −80° C.
Spleens from wild type CD45.1.2 mice were smashed on a 70 μm cell strainer. CD8 T cells were purified using the Easy SepTM Mouse CD8+ T Cell Isolation Kit (StemCell) according to the manufacturer protocol. 0.5×10^6 CD8 T cells were plated in 48 well plates in 0.5 ml of complete RPMI 1640 medium supplemented with 10% FCS, antibiotics and 50 IU/ml of recombinant human IL-2, and exposed to either DMSO or 20 μM Compound 45. Mouse T-cells were activated with Activator CD3/CD28 Dynabeads (Gibco) at a ratio of 2 beads per cell. Retroviral infection was conducted at 37° C. for 24 h. Untreated 48 well plates were coated for 24 h with 20 μg/ml of recombinant human fibronectin (Takara Clontech) at 4° C., followed by PBS 2% BSA for 30 min at RT and finally washed with PBS. One aliquot of concentrated retroviruses was plated in each fibronectin-coated 48 well plates and centrifuged for 90 min at 2′000 rcf and 32° C. Then, 0.5×10^6 of 24 h-activated CD8 T cells were added on top of the viruses and spun for 10 min at 400 rcf and 32° C. On day 3, the medium was replaced with 10 IU/ml recombinant human IL-2, 10 ng/ml recombinant human IL-7 and 10 ng/ml recombinant human IL-15, containing either DMSO or 20 μM Compound 45. Cells were then split every second day.
CD45.2 C57BL/6 mice were engrafted subcutaneously with 4×10^5 B16F10 tumors modified to express HER2. Six days later, mice were lymphodepleted with 100 mg/kg cyclophosphamide (Sigma Aldrich, C7397) injected i.p., and homogeneous groups were constituted with regard to tumor volume. T cells (5×10^6) were adoptively transferred i.v. on the next day. Tumor volumes were measured three times a week with a caliper and calculated using the formula: V=π×[d2×D]/6, where d is the minor tumor axis and D is the major tumor axis. Tumors were collected and separated from skin. Single cell suspensions were obtained with the Mouse Tumor Dissociation Kit (Miltenyi, 130-096-730) according to the manufacturer protocol. Spleen and draining lymph node were smashed on a 70 μm cell strainer. Single cell suspensions were stained with antibodies before flow cytometry analysis.
Polyclonal CD8 T cells from wild type mice were activated in the presence of DMSO or 20 μM Compound 45 and then retrovirally transduced with a HER2-CAR construct (FIG. 4A). […] No difference in percentages of memory precursor effector T cells could be detected (FIG. 4F) and TCF1-expressing T cells (FIG. 4G). […] More tumor-infiltrating Compound 45-treated CAR T cells expressed TCF1 (FIG. 5H). […] Finally, fewer Compound 45-treated CAR T cells were expressing the inhibitory molecules PD1 and TIM3, indicating a less exhausted phenotype (FIG. 5K).

SMILES: O=c1cc(Cc2ccccc2)n2c(SCc3c(F)cccc3Cl)nnc2[nH]1 [Compound 45, 5-benzyl-3-[(2-chloro-6-fluorobenzyl)sulfanyl][1,2,4]triazolo[4,3-a]pyrimidin-7 (8H)-one]
- IC50 [1]: 64 nM
- tumor growth ([2]; HER2CAR T cells produced with 20 μM compound, 5×10^6 cells i.v. (FIGS. 4B and 4C)): significantly suppress
- number of CAR T cells in blood ([2]; blood 12 days after ACT (FIG. 4D)): no difference
- percentage of HER2CAR T cells forming short-lived effector T cells ([2]; blood 12 days after ACT (FIG. 4E)): significantly reduced
- percentages of memory precursor effector T cells ([2]; blood 12 days after ACT (FIG. 4F)): No difference
- percentages of TCF1-expressing T cells ([2]; blood 12 days after ACT (FIG. 4G)): No difference
- central memory T cell differentiation ([2]; draining lymph node (FIG. 5B)): Neither in the draining lymph node nor in the spleen could be observed a difference
- HER2CAR T cells expressing TCF1 ([2]; draining lymph node (FIG. 5C)): Neither in the draining lymph node nor in the spleen could be observed a difference
- engraftment of HER2CAR T cells in the spleen ([2]; spleen (FIG. 5D)): increase was significant
- central memory T cell differentiation ([2]; spleen (FIG. 5E)): Neither in the draining lymph node nor in the spleen could be observed a difference
- HER2CAR T cells expressing TCF1 ([2]; spleen (FIG. 5F)): Neither in the draining lymph node nor in the spleen could be observed a difference
- CAR T cells in tumors ([2]; tumor (FIG. 5G)): significantly more
- tumor-infiltrating CAR T cells expressing TCF1 ([2]; tumor (FIG. 5H)): More
- CAR T cells expressing the inhibitory molecules PD1 and TIM3 ([2]; tumor (FIG. 5K)): fewer
- progenitor exhausted T cells (TCF1-positive) ([2]; tumor, co-expression of TCF1 with PD1 (FIG. 5I)): more
- terminally differentiated exhausted T cells (TCF1-negative) ([2]; tumor, co-expression of TCF1 with PD1 (FIG. 5J)): less
- engraftment of HER2CAR T cells in the tumor-draining lymph nodes ([2]; tumor-draining lymph nodes (FIG. 5A)): trend towards an increased engraftment

Source: patent US20240360143A1, “[1,2,4]TRIAZOLO[4,3-A]PYRIMIDIN-7(8H)-ONE AS MITOCHONDRIAL PYRUVATE CARRIER INHIBITORS FOR USE IN THE TREATMENT OF CANCER” (MPC THERAPEUTICS SA, priority 2021, published 2024)
